Results reported in the NIST ThermoML archive (doi:10.1021/je060420p).
Numbers after ± are expanded uncertainties.

Columns and labels:
[1] = refractive index (Na D-line) (dimensionless); settings: 101.33 kPa, Liquid, Standard Abbe refractometry
[2] = 101.33 kPa, Liquid
[3] = excess molar enthalpy (molar enthalpy of mixing); xn = mol fraction of the nth substance listed; settings: 101 kPa, Liquid, Calvet calorimetry

Cc1ccc(C(C)C)cc1 [1-(1-methylethyl)-4-methylbenzene]
Settings | mass density, 298.15 K [kg/m3] | mass density, 308.15 K [kg/m3] | mass density, 318.15 K [kg/m3] | refractive index, 298.15 K | refractive index, 308.15 K | refractive index, 318.15 K
[1] | – | – | – | 1.4878 ± 0.0006 | 1.4831 ± 0.0006 | 1.4789 ± 0.0006
[2] | 853.47 ± 1.1 | 845.59 ± 1.1 | 838.46 ± 1.1 | – | – | –

CC1=CCC2CC1C2(C)C (centres undefined) [2-pinene]
Settings | mass density, 298.15 K [kg/m3] | mass density, 308.15 K [kg/m3] | mass density, 318.15 K [kg/m3] | refractive index, 298.15 K | refractive index, 308.15 K | refractive index, 318.15 K
[1] | – | – | – | 1.4626 ± 0.0006 | 1.4581 ± 0.0006 | 1.4542 ± 0.0006
[2] | 854.03 ± 0.93 | 845.79 ± 0.97 | 838.64 ± 1 | – | – | –

CC1=CCC2CC1C2(C)C (centres undefined) [2-pinene] + C=C1CCC2CC1C2(C)C
[3]
Settings | excess molar enthalpy [kcal/mol]
298.15 K, x1 = 0.2012 | 0.00167 ± 0.000191
298.15 K, x1 = 0.3013 | 0.0022 ± 0.000191
298.15 K, x1 = 0.3987 | 0.00253 ± 0.000215
298.15 K, x1 = 0.4993 | 0.00265 ± 0.000215
298.15 K, x1 = 0.5994 | 0.00246 ± 0.000215
298.15 K, x1 = 0.7023 | 0.00227 ± 0.000215
298.15 K, x1 = 0.7998 | 0.00174 ± 0.000191
308.15 K, x1 = 0.2 | 0.00179 ± 0.000191
308.15 K, x1 = 0.3004 | 0.00241 ± 0.000215
308.15 K, x1 = 0.3999 | 0.00272 ± 0.000215
308.15 K, x1 = 0.5006 | 0.00284 ± 0.000215
308.15 K, x1 = 0.6013 | 0.00261 ± 0.000215
308.15 K, x1 = 0.6972 | 0.00237 ± 0.000215
308.15 K, x1 = 0.7998 | 0.00177 ± 0.000191
318.15 K, x1 = 0.2003 | 0.0021 ± 0.000191
318.15 K, x1 = 0.3001 | 0.00268 ± 0.000215
318.15 K, x1 = 0.4034 | 0.00304 ± 0.000215
318.15 K, x1 = 0.5 | 0.00315 ± 0.000215
318.15 K, x1 = 0.6004 | 0.00301 ± 0.000215
318.15 K, x1 = 0.7012 | 0.00272 ± 0.000215
318.15 K, x1 = 0.7975 | 0.00201 ± 0.000191

C=C1CCC2CC1C2(C)C (stereo not drawn) [β-pinene]
Settings | mass density, 298.15 K [kg/m3] | mass density, 308.15 K [kg/m3] | mass density, 318.15 K [kg/m3] | refractive index, 298.15 K | refractive index, 308.15 K | refractive index, 318.15 K
[1] | – | – | – | 1.476 ± 0.0006 | 1.4714 ± 0.0006 | 1.4665 ± 0.0006
[2] | 867.06 ± 0.9 | 859.08 ± 0.93 | 852.08 ± 0.96 | – | – | –
